A word on the Km: it is the substrate concentration at which the rate is half of its maximum.

For this assay, the system named is T1, chitinase 1198 Truncated.
T1 construct: gene CT01GL001198; perhaps lacks disordered N-terminus (residues 1-201; approx. 63 kD proteolysis bands mentioned)
The experiment in a line: p-nitrophenol release, absorbance at […] nm. Format: biochemical, Chitinibacter tainanensis. Conditions: standard assay 50 mM Tris-HCl pH 7.0, substrate 5-300 μM; temperature of kinetic run not stated.

In the case of `CC(=O)N[C@H]1[C@H](Oc2ccc([N+](=O)[O-])cc2)O[C@H](CO)[C@@H](O[C@@H]2O[C@H](CO)[C@@H](O)[C@H](O)[C@H]2NC(C)=O)[C@@H]1O` [pNP-(GlcNAc)2], the Km amounted to 58.3 ± 11 µM.

The values above are taken from publication PMC7463862, “Gene Cloning, Characterization, and Molecular Simulations of a Novel Recombinant Chitinase from Chitinibacter Tainanensis CT01 Appropriate for Chitin Enzymatic Hydrolysis” (Polymers, 2020).
